According to patent US8298996B2, “Low toxicity shale hydration inhibition agent and method of use” (M-I L.L.C., priority 2007, dated 2012):
Where two headings read alike, the source gives them in different places.

Key:
[1] = for 10′ Gel / Viscosity (cps) at 3 rpm / YP: after hot rolled at 150° F., about 10 ppb inhibitor in tap water; for shale inhibiting characteristics: summary of Tables 6-9
Experimental: This test procedure uses pint jars that are filled with one barrel equivalent of tap water and about 10 ppb of a shale inhibitor. Tap water was used as a control sample. […] After stirring the samples for about 30 minutes, the rheologies were measured and then the samples were heat aged overnight at about 150° F. After the samples were cooled the rheologies were measured and recorded. This procedure was carried out for each sample until all of the samples were too thick to measure.

luminescent bacteria = conditions: for EC50 (15): reduces light emission by 50% at 15 minutes at 15° C.; for toxicity results: summary of Tables 6-9

| Compound | 10′ Gel ([1]; 50 ppb Bentonite) | Viscosity (cps) at 3 rpm ([1]; 50 ppb Bentonite) [cps] | YP ([1]; 50 ppb Bentonite) | 10′ Gel ([1]; 60 ppb Bentonite) | Viscosity (cps) at 3 rpm ([1]; 60 ppb Bentonite) [cps] | YP ([1]; 60 ppb Bentonite) | 10′ Gel ([1]; 70 ppb Bentonite) | Viscosity (cps) at 3 rpm ([1]; 70 ppb Bentonite) [cps] | YP ([1]; 70 ppb Bentonite) | shale inhibiting characteristics [1] | EC50 (15) (luminescent bacteria) [%] | toxicity results (luminescent bacteria) |
| --- | --- | --- | --- | --- | --- | --- | --- | --- | --- | --- | --- | --- |
| Triethylamine Diethyl Sulfate | 7 | 4 | 6 | 9 | 4 | 8 | 14 | 8 | 45 | good | 100 | good |
| Triethylamine Dimethyl Sulfate [A (Triethylamine Dimethyl Sulfate)] | 3 | 2 | 4 | 4 | 3 | 4 | 17 | 12 | 48 | good | 92.16 | good |
| [Cl-].[K+] [Potassium Chloride, reference compound] | 26 | 12 | 9 | 63 | 48 | 45 | 300 | 143 | 136 | – | – | – |
